In ChEMBL document CHEMBL1126054, “Structure and molecular modeling of GABAA receptor antagonists” (J Med Chem, 1992) one finds IC50 data, which are given here for five molecules.

Assay [1] is described as follows: (§1) Displacement of [3H]GABA from gamma-aminobutyric-acid A (GABA-A) receptor. Details: species or system Rattus norvegicus. A general note: Loss of bound radioactivity is the signal in a displacement assay; it reports binding, not function.
Assay [2] addresses GABA-A receptor; anion channel. Described as §1. The class given is protein-complex assay, Rattus norvegicus.
The target in assay [3] is GABA-A receptor; anion channel. Description: Displacement of [3H]muscimol from Gamma-aminobutyric acid A (GABA-A) receptor. The class given is protein-complex assay, Rattus norvegicus.

In general, IC50 refers to the midpoint of a concentration-inhibition curve.

Structures are written as SMILES.

`O=C1C=C2C=C[C@@H]3C[C@@]2(O1)[C@H]1CCCCN31` [SECURININE]: the IC50 in assay [1] stood at 50 µM.
Molecule `COc1cc2c3cc1Oc1cc(ccc1O)C[C@@H]1c4c(cc(OC)c(O)c4Oc4ccc(cc4)C[C@@H]3N(C)CC2)CC[N+]1(C)C` displayed a 50% inhibitory concentration (IC50) in assay [2] of 58 µM.
Take `c1ccc2c(c1)Cc1ccccc1-n1c-2nnc1N1CCNCC1` [PITRAZEPINE]: the 50% inhibitory concentration (IC50) in assay [3] came out at 0.24 µM. That is a sub-micromolar value.
For `CC12CC(=O)C3C(CCC4CC(O)CCC43C)C1CC(=N)N2` (stereo not given), in assay [2], the IC50 was found to be 0.02 µM.
Same read-out and setting: to `Oc1onc2c1CCNCC2` belongs 16 µM.
